In patent publication US12503453B2, “USP7 inhibition” (Dana-Farber Cancer Institute, Inc., priority 2018, dated 2025):

What was measured:
MCF7 cells = assay: Transcriptome profiling, 3' Digital Gene Expression RNA-seq; format: cell-based; settings: 24 hours, low or high doses
From the text: Overall, transcripts were detected for 7000-10,000 genes (7276 genes detected across all conditions).
The same report had also identified a set of dimerization partner, Retinoblastoma-like, E2F and multi-vulval class B (DREAM) complex target genes by combining p53 repression data (generated in part with Nutlin-3A-treated MCF7 cells) with cell cycle expression and DREAM component binding.

A673 cells = assay: Cell proliferation (CellTiter-Glo), A673; format: cell-based; settings: TP53-mutant, 3 days
Description: Cells were plated in 384-well culture-treated plates and allowed to settle overnight. After drug treatment and appropriate incubation time, cell viability was assessed using the CellTiter-Glo Luminescent Cell Viability Assay (Promega). Luminescence was read on a Fluostar Omega Reader (BMG Labtech).

full length USP7 = full length USP7 (Homo sapiens (Human), UniProt Q93009); assay: Ub-AMC enzymatic assay with full-length USP7; format: biochemical; settings: full-length USP7, Ub-AMC
Description: Both constructs were overexpressed in E. coli BL21 (DE3). Cells were grown at 37° C. to an OD of 0.9, cooled to 16° C., induced with 500 μM isopropyl-1-thio-D-galactopyranoside (IPTG), incubated overnight at 16° C., collected by centrifugation, and stored at −80° C. Cell pellets were sonicated in lysis buffer (25 mM Tris pH 8, 1 M NaCl, and 10 mM BME) supplemented with 10 μg/ml phenylmethanesulfonylfluoride (PMSF) and the resulting lysate was centrifuged at 30,000×g for 40 min. Ni-NTA beads (Qiagen) were mixed with lysate supernatant for 2 hours, and washed with lysis buffer supplemented with 25 mM imidazole. The bound protein was eluted with lysis buffer supplemented with 300 mM imidazole. The sample was then concentrated to 1 ml (30 kDa concentrator; Amicon Ultra, Millipore), and run on a Superdex 200 (GE healthcare) in buffer containing 25 mM HEPES pH 7.5, 200 mM NaCl, and 1 mM DTT. Fractions were pooled, concentrated and frozen at −80° C.
Full length USP7 was tested for its activity in Ubiquitin-AMC assay in presence or absence of inhibitors. USP7 (5 nM) was pre-incubated for 6 hours at room temperature with different concentrations of inhibitors or DMSO as a control in 50 mM HEPES pH 7.5, 0.5 mM EDTA, 11 μM ovalbumin, and 5 mM DTT. Ubiquitin-AMC (Boston Biochem) was then added to a final concentration of 500 nM. The initial rate of the reaction was measured by collecting fluorescence data at one minute intervals over 30-minute period using a Clariostar fluorescence plate reader at excitation and emission wavelength of 345 and 445 nm respectively. The calculated initial rate values were plotted against inhibitor concentrations to determine IC50s. All the experimental data were plotted using Prism GraphPad. All assays for each compound were performed at least twice for each compound.

HEK293 proteome (USP7) = HEK293 proteome (USP7) (Homo sapiens (Human), UniProt Q93009); assay: Compound 6-DTB proteome-wide profiling; format: binding; settings: HEK293 cell lysates, 5 hours, 1 μM or 10 μM
Description: HEK 293AD cells were lysed as described above, and the lysate was cleared by centrifugation. […] SDS was added to a final concentration of 1.2% (27.2 μL of a 10% stock), and denatured by heating to 80° C. for 5 minutes. After cooling to RT, 1125 μL 1×PBS was added to dilute the final SDS concentration to 0.2%. 50 μL streptavidin agarose slurry was added to each sample, followed by incubation at RT for 3 hours. After streptavidin enrichment, samples were washed vigorously (2×0.2% SDS, 3×PBS, 3×ddH2O). After the final wash, all supernatant was removed using a flat-bottom tip, and the resin was flash frozen and stored at −80° C. until workup for TMT labeling.
Streptavidin beads were resuspended in 95 μL 100 mM Tris pH 8.0. Each sample was denatured with 0.1% rapigest, reduced (10 mM dithiothreitol), alkylated (22.5 mM iodoacetamide), and digested with trypsin overnight at 37° C. […] Eluted peptides were then analyzed by nanoLC-MS as described (Ficarro, S. B. et al. Improved electrospray ionization efficiency compensates for diminished chromatographic resolution and enables proteomics analysis of tyrosine signaling in embryonic stem cells. Anal. Chem. 81, 3440-3447 (2009)) with a NanoAcquity UPLC system (Waters, Milford, MA) interfaced to a QExactive HF mass spectrometer (Thermofisher Scientific, San Jose, CA). […]

full length USP7, sequence (Q93009 whole entry): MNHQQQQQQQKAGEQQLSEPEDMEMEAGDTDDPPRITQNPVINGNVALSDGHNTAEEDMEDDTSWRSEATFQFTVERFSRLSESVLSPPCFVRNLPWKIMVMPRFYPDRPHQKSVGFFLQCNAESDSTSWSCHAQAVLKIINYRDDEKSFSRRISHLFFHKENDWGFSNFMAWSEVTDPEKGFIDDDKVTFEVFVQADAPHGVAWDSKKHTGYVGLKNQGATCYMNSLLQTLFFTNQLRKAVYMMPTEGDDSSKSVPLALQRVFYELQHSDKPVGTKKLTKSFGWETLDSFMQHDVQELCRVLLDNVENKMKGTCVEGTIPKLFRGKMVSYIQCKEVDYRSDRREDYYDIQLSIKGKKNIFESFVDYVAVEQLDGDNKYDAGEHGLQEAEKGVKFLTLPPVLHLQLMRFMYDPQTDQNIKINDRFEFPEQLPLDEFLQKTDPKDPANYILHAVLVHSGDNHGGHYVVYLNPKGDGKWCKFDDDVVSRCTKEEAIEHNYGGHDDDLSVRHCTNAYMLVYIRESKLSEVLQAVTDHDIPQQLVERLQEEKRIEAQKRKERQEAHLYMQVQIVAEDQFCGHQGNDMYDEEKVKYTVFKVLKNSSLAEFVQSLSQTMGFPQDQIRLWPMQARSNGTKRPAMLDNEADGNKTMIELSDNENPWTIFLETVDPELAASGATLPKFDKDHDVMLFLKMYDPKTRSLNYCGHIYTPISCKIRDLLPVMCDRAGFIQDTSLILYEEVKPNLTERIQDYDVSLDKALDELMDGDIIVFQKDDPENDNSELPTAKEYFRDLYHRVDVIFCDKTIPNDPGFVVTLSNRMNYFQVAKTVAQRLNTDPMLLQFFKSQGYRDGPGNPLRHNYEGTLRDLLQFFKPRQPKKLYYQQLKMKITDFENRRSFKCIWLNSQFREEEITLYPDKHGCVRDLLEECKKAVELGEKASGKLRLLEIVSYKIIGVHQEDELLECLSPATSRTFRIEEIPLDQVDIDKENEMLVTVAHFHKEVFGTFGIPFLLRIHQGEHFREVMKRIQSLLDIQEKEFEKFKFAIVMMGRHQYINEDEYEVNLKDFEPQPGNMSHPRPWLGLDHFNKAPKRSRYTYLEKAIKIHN
HEK293 proteome (USP7), sequence (Q93009 whole entry): as above

## CN1CCN(CCC(=O)Nc2ccc3c(=O)n(CC4(O)CCN(C(=O)[C@@H](CCCNC(=O)c5ccc6c(Cl)c7c(nc6c5)CCCC7)Cc5ccccc5)CC4)cnc3c2)CC1 [compound 6, (S)—N-(4-benzyl-5-(4-hydroxy-4-((7-(3-(4-methylpiperazin-1-yl)propanamido)-4-oxoquinazolin-3(4H)-yl)methyl)piperidin-1-yl)-5-oxopentyl)-9-chloro-5,6,7,8-tetrahydroacridine-3-carboxamide]
MCF7 cells
  transcriptional profile: strongly correlated transcriptional profiles
A673 cells
  growth inhibition: neither TP53-mutant A673 or TC71 was substantially inhibited
Full length USP7
  IC50 against USP7 (range in words): subnanomolar range
HEK293 proteome (USP7)
  inhibition of compound 6-DTB labeling of USP7 (only protein of 566): > 3 fold
